Assay results: publication PMC6784069 (Toxins, 2019)
Like-named read-outs stand apart in the source and are kept apart here. Residues, ends and D or L forms follow the SMILES beside them.

Legend:
hNaV1.7 [1] = molecular target: T1, hNaV1.7 (Homo sapiens, UniProt Q15858); test: cell-based; type: cell-based; conditions: for IC50: hNaV1.7 IC50
hCaV1.2 = hCaV1.2 (Homo sapiens, UniProt Q13936); test: cell-based; conditions: read-out: IC90–95 (compound concentration necessary to inhibit 90–95% of current)
[2] = test system: OD1-induced painful behavior of mice; conditions: mouse, in vivo; cited from earlier work
hNaV1.7 [3] = molecular target: T1, hNaV1.7; conditions: cited from earlier work

T1 sequence (Q15858 whole entry): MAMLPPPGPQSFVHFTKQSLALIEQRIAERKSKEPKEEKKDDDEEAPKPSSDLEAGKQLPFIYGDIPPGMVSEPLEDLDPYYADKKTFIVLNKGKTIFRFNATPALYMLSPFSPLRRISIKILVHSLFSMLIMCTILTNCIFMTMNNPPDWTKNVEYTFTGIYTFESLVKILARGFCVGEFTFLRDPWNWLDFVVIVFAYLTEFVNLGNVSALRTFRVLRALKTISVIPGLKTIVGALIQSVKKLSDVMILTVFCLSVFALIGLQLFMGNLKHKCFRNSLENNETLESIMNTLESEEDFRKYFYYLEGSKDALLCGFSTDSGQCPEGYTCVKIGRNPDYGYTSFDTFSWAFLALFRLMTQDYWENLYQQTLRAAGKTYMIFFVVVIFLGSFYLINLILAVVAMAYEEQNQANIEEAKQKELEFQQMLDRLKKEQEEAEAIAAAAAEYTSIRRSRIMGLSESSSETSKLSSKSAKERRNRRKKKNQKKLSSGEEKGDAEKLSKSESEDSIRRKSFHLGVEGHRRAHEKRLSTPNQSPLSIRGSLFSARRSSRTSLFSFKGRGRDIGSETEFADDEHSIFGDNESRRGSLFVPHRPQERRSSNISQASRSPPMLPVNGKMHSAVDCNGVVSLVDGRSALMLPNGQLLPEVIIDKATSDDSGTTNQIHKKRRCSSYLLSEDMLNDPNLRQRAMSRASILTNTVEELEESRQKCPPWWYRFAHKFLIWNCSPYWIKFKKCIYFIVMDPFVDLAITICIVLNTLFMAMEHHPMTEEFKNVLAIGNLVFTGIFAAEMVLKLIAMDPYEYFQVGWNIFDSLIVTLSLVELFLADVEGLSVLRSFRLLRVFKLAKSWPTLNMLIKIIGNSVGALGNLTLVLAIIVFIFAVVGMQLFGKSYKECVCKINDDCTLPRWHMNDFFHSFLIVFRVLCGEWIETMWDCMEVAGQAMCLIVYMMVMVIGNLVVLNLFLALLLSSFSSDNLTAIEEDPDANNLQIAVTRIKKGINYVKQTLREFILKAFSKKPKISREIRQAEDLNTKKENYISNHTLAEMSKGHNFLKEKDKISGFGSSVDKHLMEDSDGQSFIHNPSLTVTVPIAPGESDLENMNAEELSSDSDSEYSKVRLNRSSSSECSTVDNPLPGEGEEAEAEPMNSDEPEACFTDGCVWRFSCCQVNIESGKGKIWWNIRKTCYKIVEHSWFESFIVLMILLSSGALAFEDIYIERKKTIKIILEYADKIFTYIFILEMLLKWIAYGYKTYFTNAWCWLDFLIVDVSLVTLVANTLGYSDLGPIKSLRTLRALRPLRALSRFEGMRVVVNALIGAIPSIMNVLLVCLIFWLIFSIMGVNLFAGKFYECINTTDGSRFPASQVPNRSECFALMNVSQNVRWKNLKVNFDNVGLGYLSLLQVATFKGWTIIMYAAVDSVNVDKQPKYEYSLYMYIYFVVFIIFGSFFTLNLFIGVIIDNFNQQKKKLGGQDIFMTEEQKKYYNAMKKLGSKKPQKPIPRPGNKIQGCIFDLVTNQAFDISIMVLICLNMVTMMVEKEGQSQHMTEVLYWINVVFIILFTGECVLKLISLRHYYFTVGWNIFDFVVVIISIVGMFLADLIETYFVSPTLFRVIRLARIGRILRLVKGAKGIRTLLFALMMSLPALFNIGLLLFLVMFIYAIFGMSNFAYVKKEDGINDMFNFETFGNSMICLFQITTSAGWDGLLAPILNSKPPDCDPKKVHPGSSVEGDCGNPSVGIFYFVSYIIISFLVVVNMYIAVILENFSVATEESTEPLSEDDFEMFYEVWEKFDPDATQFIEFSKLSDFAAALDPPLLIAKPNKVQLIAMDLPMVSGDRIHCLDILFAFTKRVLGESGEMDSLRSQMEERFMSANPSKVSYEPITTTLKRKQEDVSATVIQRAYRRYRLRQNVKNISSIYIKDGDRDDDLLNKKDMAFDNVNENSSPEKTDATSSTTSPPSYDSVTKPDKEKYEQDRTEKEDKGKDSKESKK

## CC(C)C[C@@H]1NC(=O)[C@@H](NC(=O)[C@@H]2CCC(=O)N2)CSSC[C@@H]2NC(=O)[C@@H]3CSSC[C@@H](C(=O)N[C@@H](CCCNC(=N)N)C(=O)N[C@@H](Cc4ccc(O)cc4)C(=O)N[C@@H](CCCCN)C(=O)N[C@@H](CC(C)C)C(=O)N[C@@H](Cc4ccccc4)C(=O)O)NC(=O)[C@H](Cc4c[nH]c5ccccc45)NC(=O)[C@@H]4CCCN4C(=O)[C@H](Cc4ccc(O)cc4)NC(=O)[C@H](CCCCN)NC(=O)[C@H](Cc4c[nH]c5ccccc45)NC(=O)[C@H](CCC(=O)O)NC(=O)[C@H](CSSC[C@H](NC(=O)[C@H](CO)NC(=O)[C@H](CC(=O)O)NC(=O)[C@H](Cc4c[nH]c5ccccc45)NC(=O)[C@H](CCC(N)=O)NC(=O)CNC1=O)C(=O)N[C@@H](CC(=O)O)C(=O)N1CCC[C@H]1C(=O)N[C@@H](CCCCN)C(=O)N[C@@H](C)C(=O)N[C@@H](CO)C(=O)N[C@@H](CCCCN)C(=O)N3)NC(=O)[C@H](C)NC(=O)[C@H](Cc1ccc(O)cc1)NC(=O)[C@H](CC(N)=O)NC(=O)[C@@H]1CCCN1C2=O [A1Z] (HELM PEPTIDE1{[Glp].C.L.G.Q.W.D.S.C.D.P.K.A.S.K.C.C.P.N.Y.A.C.E.W.K.Y.P.W.C.R.Y.K.L.F}$PEPTIDE1,PEPTIDE1,2:R3-17:R3|PEPTIDE1,PEPTIDE1,9:R3-22:R3|PEPTIDE1,PEPTIDE1,16:R3-29:R3$$$V2.0)
hNaV1.7 [1]
  modification of variant affinity for hNaV1.7 relative to wild-type: less than 3 fold
hNaV1.7 [1]; SD
  IC50: 172 nM

## [Cl][Cd][Cl] [Cadmium (chloride), reference compound]
hCaV1.2
  IC90: 200000 nM

## CC(C)C[C@@H]1NC(=O)[C@@H](NC(=O)[C@H](C)N)CSSC[C@@H]2NC(=O)[C@@H]3CSSC[C@@H](C(=O)N[C@@H](CCCNC(=N)N)C(=O)N[C@@H](Cc4ccc(O)cc4)C(=O)N[C@@H](CCCCN)C(=O)N[C@@H](CC(C)C)C(=O)N[C@@H](Cc4ccccc4)C(=O)O)NC(=O)[C@H](Cc4c[nH]c5ccccc45)NC(=O)[C@@H]4CCCN4C(=O)[C@H](Cc4ccc(O)cc4)NC(=O)[C@H](CCCCN)NC(=O)[C@H](Cc4c[nH]c5ccccc45)NC(=O)[C@H](CCC(=O)O)NC(=O)[C@H](CSSC[C@H](NC(=O)[C@H](CO)NC(=O)[C@H](CC(=O)O)NC(=O)[C@H](Cc4c[nH]c5ccccc45)NC(=O)[C@H](CCC(N)=O)NC(=O)CNC1=O)C(=O)N[C@@H](CC(=O)O)C(=O)N1CCC[C@H]1C(=O)N[C@@H](C)C(=O)N[C@@H](C)C(=O)N[C@@H](CO)C(=O)N[C@@H](CCCCN)C(=O)N3)NC(=O)[C@H](C)NC(=O)[C@H](Cc1ccc(O)cc1)NC(=O)[C@H](CC(N)=O)NC(=O)[C@@H]1CCCN1C2=O [K12A] (HELM PEPTIDE1{A.C.L.G.Q.W.D.S.C.D.P.A.A.S.K.C.C.P.N.Y.A.C.E.W.K.Y.P.W.C.R.Y.K.L.F}$PEPTIDE1,PEPTIDE1,2:R3-17:R3|PEPTIDE1,PEPTIDE1,9:R3-22:R3|PEPTIDE1,PEPTIDE1,16:R3-29:R3$$$V2.0)
hNaV1.7 [1]
  modification of variant affinity for hNaV1.7 relative to wild-type: less than 3 fold
hNaV1.7 [1]; SD
  IC50: 252 nM

## CC(C)C[C@@H]1NC(=O)[C@@H](NC(=O)[C@H](C)N)CSSC[C@@H]2NC(=O)[C@@H]3CSSC[C@@H](C(=O)N[C@@H](CCCNC(=N)N)C(=O)N[C@@H](Cc4ccc(O)cc4)C(=O)N[C@@H](CCCCN)C(=O)N[C@@H](CC(C)C)C(=O)N[C@@H](Cc4ccccc4)C(=O)O)NC(=O)[C@H](Cc4c[nH]c5ccccc45)NC(=O)[C@@H]4CCCN4C(=O)[C@H](Cc4ccc(O)cc4)NC(=O)[C@H](CCCCN)NC(=O)[C@H](Cc4c[nH]c5ccccc45)NC(=O)[C@H](CCC(=O)O)NC(=O)[C@H](CSSC[C@H](NC(=O)[C@H](CO)NC(=O)[C@H](CC(=O)O)NC(=O)[C@H](Cc4c[nH]c5ccccc45)NC(=O)[C@H](CCC(N)=O)NC(=O)CNC1=O)C(=O)N[C@@H](CC(=O)O)C(=O)N1CCC[C@H]1C(=O)N[C@@H](CCCCN)C(=O)N[C@@H](C)C(=O)N[C@@H](CO)C(=O)N[C@@H](C)C(=O)N3)NC(=O)[C@H](C)NC(=O)[C@H](Cc1ccc(O)cc1)NC(=O)[C@H](CC(N)=O)NC(=O)[C@@H]1CCCN1C2=O [K15A] (HELM PEPTIDE1{A.C.L.G.Q.W.D.S.C.D.P.K.A.S.A.C.C.P.N.Y.A.C.E.W.K.Y.P.W.C.R.Y.K.L.F}$PEPTIDE1,PEPTIDE1,2:R3-17:R3|PEPTIDE1,PEPTIDE1,9:R3-22:R3|PEPTIDE1,PEPTIDE1,16:R3-29:R3$$$V2.0)
hNaV1.7 [1]
  modification of variant affinity for hNaV1.7 relative to wild-type: less than 3 fold
hNaV1.7 [1]; SD
  IC50: 706 nM

## CC(C)C[C@@H]1NC(=O)[C@@H](NC(=O)[C@H](C)N)CSSC[C@@H]2NC(=O)[C@@H]3CSSC[C@@H](C(=O)N[C@@H](CCCNC(=N)N)C(=O)N[C@@H](Cc4ccc(O)cc4)C(=O)N[C@@H](CCCCN)C(=O)N[C@@H](CC(C)C)C(=O)N[C@@H](Cc4ccccc4)C(=O)O)NC(=O)[C@H](Cc4c[nH]c5ccccc45)NC(=O)[C@@H]4CCCN4C(=O)[C@H](Cc4ccc(O)cc4)NC(=O)[C@H](C)NC(=O)[C@H](Cc4c[nH]c5ccccc45)NC(=O)[C@H](CCC(=O)O)NC(=O)[C@H](CSSC[C@H](NC(=O)[C@H](CO)NC(=O)[C@H](CC(=O)O)NC(=O)[C@H](Cc4c[nH]c5ccccc45)NC(=O)[C@H](CCC(N)=O)NC(=O)CNC1=O)C(=O)N[C@@H](CC(=O)O)C(=O)N1CCC[C@H]1C(=O)N[C@@H](CCCCN)C(=O)N[C@@H](C)C(=O)N[C@@H](CO)C(=O)N[C@@H](CCCCN)C(=O)N3)NC(=O)[C@H](C)NC(=O)[C@H](Cc1ccc(O)cc1)NC(=O)[C@H](CC(N)=O)NC(=O)[C@@H]1CCCN1C2=O [K25A] (HELM PEPTIDE1{A.C.L.G.Q.W.D.S.C.D.P.K.A.S.K.C.C.P.N.Y.A.C.E.W.A.Y.P.W.C.R.Y.K.L.F}$PEPTIDE1,PEPTIDE1,2:R3-17:R3|PEPTIDE1,PEPTIDE1,9:R3-22:R3|PEPTIDE1,PEPTIDE1,16:R3-29:R3$$$V2.0)
hNaV1.7 [1]
  IC50: > 10000 nM

## COC(=O)C1=C(C)NC(C)=C(C(=O)OC)C1c1ccccc1[N+](=O)[O-] [Nifedipine, reference compound]
hCaV1.2; CHO
  IC90: 10000 nM

## CC(C)C[C@@H]1NC(=O)[C@@H](NC(=O)[C@H](C)N)CSSC[C@@H]2NC(=O)[C@@H]3CSSC[C@@H](C(=O)N[C@@H](CCCNC(=N)N)C(=O)N[C@@H](Cc4ccc(O)cc4)C(=O)N[C@@H](CCCCN)C(=O)N[C@@H](CC(C)C)C(=O)N[C@@H](Cc4ccccc4)C(=O)O)NC(=O)[C@H](Cc4c[nH]c5ccccc45)NC(=O)[C@@H]4CCCN4C(=O)[C@H](Cc4ccc(O)cc4)NC(=O)[C@H](CCCCN)NC(=O)[C@H](Cc4c[nH]c5ccccc45)NC(=O)[C@H](CCC(=O)O)NC(=O)[C@H](CSSC[C@H](NC(=O)[C@H](C)NC(=O)[C@H](CC(=O)O)NC(=O)[C@H](Cc4c[nH]c5ccccc45)NC(=O)[C@H](CCC(N)=O)NC(=O)CNC1=O)C(=O)N[C@@H](CC(=O)O)C(=O)N1CCC[C@H]1C(=O)N[C@@H](CCCCN)C(=O)N[C@@H](C)C(=O)N[C@@H](CO)C(=O)N[C@@H](CCCCN)C(=O)N3)NC(=O)[C@H](C)NC(=O)[C@H](Cc1ccc(O)cc1)NC(=O)[C@H](CC(N)=O)NC(=O)[C@@H]1CCCN1C2=O [S8A] (HELM PEPTIDE1{A.C.L.G.Q.W.D.A.C.D.P.K.A.S.K.C.C.P.N.Y.A.C.E.W.K.Y.P.W.C.R.Y.K.L.F}$PEPTIDE1,PEPTIDE1,2:R3-17:R3|PEPTIDE1,PEPTIDE1,9:R3-22:R3|PEPTIDE1,PEPTIDE1,16:R3-29:R3$$$V2.0)
hNaV1.7 [1]
  modification of variant affinity for hNaV1.7 relative to wild-type: less than 3 fold
hNaV1.7 [1]; SD
  IC50: 180 nM

## CC(C)C[C@@H]1NC(=O)[C@@H](NC(=O)[C@H](C)N)CSSC[C@@H]2NC(=O)[C@@H]3CSSC[C@@H](C(=O)N[C@@H](CCCNC(=N)N)C(=O)N[C@@H](Cc4ccc(O)cc4)C(=O)N[C@@H](CCCCN)C(=O)N[C@@H](CC(C)C)C(=O)N[C@@H](Cc4ccccc4)C(=O)O)NC(=O)[C@H](Cc4c[nH]c5ccccc45)NC(=O)[C@@H]4CCCN4C(=O)[C@H](Cc4ccc(O)cc4)NC(=O)[C@H](CCCCN)NC(=O)[C@H](C)NC(=O)[C@H](CCC(=O)O)NC(=O)[C@H](CSSC[C@H](NC(=O)[C@H](CO)NC(=O)[C@H](CC(=O)O)NC(=O)[C@H](Cc4c[nH]c5ccccc45)NC(=O)[C@H](CCC(N)=O)NC(=O)CNC1=O)C(=O)N[C@@H](CC(=O)O)C(=O)N1CCC[C@H]1C(=O)N[C@@H](CCCCN)C(=O)N[C@@H](C)C(=O)N[C@@H](CO)C(=O)N[C@@H](CCCCN)C(=O)N3)NC(=O)[C@H](C)NC(=O)[C@H](Cc1ccc(O)cc1)NC(=O)[C@H](CC(N)=O)NC(=O)[C@@H]1CCCN1C2=O [W24A] (HELM PEPTIDE1{A.C.L.G.Q.W.D.S.C.D.P.K.A.S.K.C.C.P.N.Y.A.C.E.A.K.Y.P.W.C.R.Y.K.L.F}$PEPTIDE1,PEPTIDE1,2:R3-17:R3|PEPTIDE1,PEPTIDE1,9:R3-22:R3|PEPTIDE1,PEPTIDE1,16:R3-29:R3$$$V2.0)
hNaV1.7 [1]
  IC50: > 10000 nM

## CC(C)C[C@@H]1NC(=O)[C@@H](NC(=O)[C@H](C)N)CSSC[C@@H]2NC(=O)[C@@H]3CSSC[C@@H](C(=O)N[C@@H](CCCNC(=N)N)C(=O)N[C@@H](Cc4ccc(O)cc4)C(=O)N[C@@H](CCCCN)C(=O)N[C@@H](CC(C)C)C(=O)N[C@@H](Cc4ccccc4)C(=O)O)NC(=O)[C@H](Cc4c[nH]c5ccccc45)NC(=O)[C@@H]4CCCN4C(=O)[C@H](C)NC(=O)[C@H](CCCCN)NC(=O)[C@H](Cc4c[nH]c5ccccc45)NC(=O)[C@H](CCC(=O)O)NC(=O)[C@H](CSSC[C@H](NC(=O)[C@H](CO)NC(=O)[C@H](CC(=O)O)NC(=O)[C@H](Cc4c[nH]c5ccccc45)NC(=O)[C@H](CCC(N)=O)NC(=O)CNC1=O)C(=O)N[C@@H](CC(=O)O)C(=O)N1CCC[C@H]1C(=O)N[C@@H](CCCCN)C(=O)N[C@@H](C)C(=O)N[C@@H](CO)C(=O)N[C@@H](CCCCN)C(=O)N3)NC(=O)[C@H](C)NC(=O)[C@H](Cc1ccc(O)cc1)NC(=O)[C@H](CC(N)=O)NC(=O)[C@@H]1CCCN1C2=O [Y26A] (HELM PEPTIDE1{A.C.L.G.Q.W.D.S.C.D.P.K.A.S.K.C.C.P.N.Y.A.C.E.W.K.A.P.W.C.R.Y.K.L.F}$PEPTIDE1,PEPTIDE1,2:R3-17:R3|PEPTIDE1,PEPTIDE1,9:R3-22:R3|PEPTIDE1,PEPTIDE1,16:R3-29:R3$$$V2.0)
hNaV1.7 [1]
  IC50: > 10000 nM

## CcoTx1: spider toxin, NaV ligand (CLGWFKSCDPKNDKCCKNYTCSRRDRWCKYDL)
[2]
  concentration efficient to diminish or completely reverse the OD1-induced manifestations of pain: 1 µM
hNaV1.7 [3]
  IC50: 2 to 130 nM

## Pre1a: spider toxin, NaV ligand (CLGWFSRCSPKNDKCCPNYKCSSKDLWCKYKIW)
hNaV1.7 [3]
  IC50: 114 nM
